The results in this text go back to US8618138B2, “Indole amide derivatives and related compounds for use in the treatment of neurodegenerative diseases” (Katholieke Universiteit Leuven, K.U. Leuven R&D, priority 2009, dated 2013).

The test relates to M17-TAU P301L cells. Description: TAU cytotoxicity assay: LDH leakage of retinoic acid incubated M17-TAU P301L cells. As to conditions: Homo sapiens, 168 h, reduction of LDH activity of retinoic acid incubated M17-TAU P301L cells, 7 days. Type of test: cell-based, human. The gist of the method: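 M17 neuroblastoma cells stably expressing human TAU P301L, seeded at 2500 cells/cm2 in Optimem with 1% FCS, then given 2.5 μM retinoic acid (stock before 1:1 addition) and grown 7 days at 37 °C. Cytotoxicity read as LDH leaked into medium; EC50 derived from these measurements.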
Background: LDH in the medium is a marker of cell lysis.
One may read the EC50 as the concentration at which the effect is half-maximal. Molecule `O=C(NCc1c[nH]c2ccc(Cl)cc12)c1cc(Cc2cccc(F)c2)on1` [Example D34, N-((5-chloro-1H-indol-3-yl)methyl)-5-(3-fluorobenzyl)isoxazole-3-carboxamide] yielded an EC50 of 59 nM.
`O=C(NCCc1c[nH]c2ccc(Cl)cc12)C1=N[C@@H](C2CCCCC2)CO1` [Example D59, (S)-N-(2-(5-chloro-1H-indol-3-yl)ethyl)-4-cyclohexyl-4,5-dihydrooxazole-2-carboxamide] came in with an EC50 of 211 nM.
For `Cn1cc(CCNC(=O)c2cc(Cc3cccc(F)c3)on2)c2cc(Cl)ccc21` [Example D51, N-(2-(5-chloro-1-methyl-1H-indol-3-yl)ethyl)-5-(3-fluorobenzyl)isoxazole-3-carboxamide], the EC50 came to 157 nM.
Then `O=C(NCCc1c[nH]c2ccc(Cl)cc12)c1cc(Cc2cccs2)on1` [Example D27, N-(2-(5-chloro-1H-indol-3-yl)ethyl)-5-(thiophen-2-ylmethyl)isoxazole-3-carboxamide], with 38 nM.
With `O=C(NCCc1c[nH]c2ccc(Cl)cc12)c1csc(-c2ccccc2)n1` [Example D67, N-(2-(5-chloro-1H-indol-3-yl)ethyl)-2-phenylthiazole-4-carboxamide], the EC50 was found to be 333 nM.
In the case of `COc1ccc(Cc2cc(C(=O)NCCc3c[nH]c4ccc(Cl)cc34)no2)cc1` [Example D10, N-(2-(5-chloro-1H-indol-3-yl)ethyl)-5-(4-methoxybenzyl)isoxazole-3-carboxamide], the EC50 came out at 17 nM.
The molecule `COc1ccccc1Cc1cc(C(=O)NCCc2c[nH]c3ccc(Cl)cc23)no1` [Example D8, N-(2-(5-chloro-1H-indol-3-yl)ethyl)-5-(2-methoxybenzyl)isoxazole-3-carboxamide] showed an EC50 of 16 nM.
In turn, `O=C(NCCc1c[nH]c2ccc(Cl)cc12)c1noc(Cc2ccsc2)n1` [Example D193, N-(2-(5-chloro-1H-indol-3-yl)ethyl)-5-(thiophen-3-ylmethyl)-1,2,4-oxadiazole-3-carboxamide] had an EC50 of 49 nM.
Then `COc1cccc(Cc2cc(C(=O)NCCc3c[nH]c4ccc(Cl)cc34)no2)c1F` [Example D21, N-(2-(5-chloro-1H-indol-3-yl)ethyl)-5-(2-fluoro-3-methoxybenzyl)isoxazole-3-carboxamide], with 25 nM.
For `O=C(NCCc1c[nH]c2ccc(Cl)cc12)c1cn(C2CCCCC2)nn1` [Example D44, N-(2-(5-chloro-1H-indol-3-yl)ethyl)-1-cyclohexyl-1H-1,2,3-triazole-4-carboxamide], a half-maximal response (EC50) required 108 nM.
With `O=C(NCCc1c[nH]c2ccc(Cl)cc12)c1cc(CN2CCCC2)on1` [Example D61, N-(2-(5-chloro-1H-indol-3-yl)ethyl)-5-(pyrrolidin-1-ylmethyl)isoxazole-3-carboxamide], the EC50 stood at 227 nM.
As to `O=C(NCCc1c[nH]c2ccc(Cl)cc12)c1cc(Cc2ccoc2)on1` [Example D22, N-(2-(5-chloro-1H-indol-3-yl)ethyl)-5-(furan-3-ylmethyl)isoxazole-3-carboxamide], it took 28 nM to reach a half-maximal effect (EC50).
Then `Cc1cc(C(=O)NCCc2c[nH]c3ccc(Cl)cc23)no1` [Example D114, N-(2-(5-chloro-1H-indol-3-yl)ethyl)-5-methylisoxazole-3-carboxamide], with 30 nM.
`Cc1noc(-c2ccccc2)c1C(=O)NCCc1c[nH]c2ccc(Cl)cc12` [Example D115, N-(2-(5-chloro-1H-indol-3-yl)ethyl)-3-methyl-5-phenylisoxazole-4-carboxamide] returned an EC50 of 269 nM.
The value for `O=C(NCCc1c[nH]c2ccc(Cl)cc12)c1nnc(Cc2ccccc2)o1` [Example D60, 5-benzyl-N-(2-(5-chloro-1H-indol-3-yl)ethyl)-1,3,4-oxadiazole-2-carboxamide] was 213 nM; that for `O=C(NCCc1c[nH]c2ccc(Cl)cc12)c1cn(Cc2ccccc2)nn1` [Example D54, 1-benzyl-N-(2-(5-chloro-1H-indol-3-yl)ethyl)-1H-1,2,3-triazole-4-carboxamide] was 173 nM.
In turn, `Cc1ccccc1N1CCC(C(=O)NCCc2c[nH]c3ccc(Cl)cc23)C1=O` (centres unmarked) [Example D158, N-(2-(5-chloro-1H-indol-3-yl)ethyl)-2-oxo-1-o-tolylpyrrolidine-3-carboxamide] returned an EC50 of 1030 nM.
As to `Cc1ccc(-c2cc(C(=O)NCCc3c[nH]c4ccc(Cl)cc34)no2)cc1` [Example D57, N-(2-(5-chloro-1H-indol-3-yl)ethyl)-5-p-tolylisoxazole-3-carboxamide], the EC50 was 195 nM.
Molecule `O=C(NCCc1c[nH]c2ccc(Cl)cc12)c1noc(Cc2ccccc2F)n1` [Example D170, N-(2-(5-chloro-1H-indol-3-yl)ethyl)-5-(2-fluorobenzyl)-1,2,4-oxadiazole-3-carboxamide] showed an EC50 of 45 nM.
Then `COc1ccc(Cc2nc(C(=O)NCCc3c[nH]c4ccc(Cl)cc34)no2)cc1` [Example D173, N-(2-(5-chloro-1H-indol-3-yl)ethyl)-5-(4-methoxybenzyl)-1,2,4-oxadiazole-3-carboxamide], with 60 nM; and `Cn1nccc1C(=O)NCCc1c[nH]c2ccc(Cl)cc12` [Example D119, N-(2-(5-chloro-1H-indol-3-yl)ethyl)-1-methyl-1H-pyrazole-5-carboxamide], with 1030 nM.
The molecule `O=C(NCCc1c[nH]c2ccc(Cl)cc12)C1CCN(c2ccccc2F)C1=O` (centres unmarked) [Example D79, N-(2-(5-chloro-1H-indol-3-yl)ethyl)-1-(2-fluorophenyl)-2-oxopyrrolidine-3-carboxamide] yielded an EC50 of 857 nM.
Molecule `Cc1nc(-c2ccccc2)sc1C(=O)NCCc1c[nH]c2ccc(Cl)cc12` [Example D46, N-(2-(5-chloro-1H-indol-3-yl)ethyl)-4-methyl-2-phenylthiazole-5-carboxamide] had an EC50 of 123 nM.
The value for `Cc1ccccc1Cc1nc(C(=O)NCCc2c[nH]c3ccc(Cl)cc23)no1` [Example D192, N-(2-(5-chloro-1H-indol-3-yl)ethyl)-5-(2-methylbenzyl)-1,2,4-oxadiazole-3-carboxamide] was 53 nM; that for `O=C(NCCc1c[nH]c2ccc(Cl)cc12)C1CCN(c2cccc(F)c2)C1=O` (centres unmarked) [Example D65, N-(2-(5-chloro-1H-indol-3-yl)ethyl)-1-(3-fluorophenyl)-2-oxopyrrolidine-3-carboxamide] was 321 nM.
As to `O=C(NCCc1c[nH]c2ccc(Cl)cc12)c1cc(Cn2cccn2)on1` [Example D42, 5-((1H-pyrazol-1-yl)methyl)-N-(2-(5-chloro-1H-indol-3-yl)ethyl)isoxazole-3-carboxamide], it took 92 nM to reach a half-maximal effect (EC50).
Then `O=C(NCCc1c[nH]c2ccc(Cl)cc12)c1cc(-c2ccccc2)on1` [Example D36, N-(2-(5-chloro-1H-indol-3-yl)ethyl)-5-phenylisoxazole-3-carboxamide], with 61 nM; and `Cn1ccc(N2CCC(C(=O)NCCc3c[nH]c4ccc(Cl)cc34)C2=O)n1` (centres unmarked) [Example D160, N-(2-(5-chloro-1H-indol-3-yl)ethyl)-1-(1-methyl-1H-pyrazol-3-yl)-2-oxopyrrolidine-3-carboxamide], with 1040 nM; and `Cc1ccc(-c2nc(C)c(C(=O)NCCc3c[nH]c4ccccc34)s2)cc1` [Example D24, N-(2-(1H-indol-3-yl)ethyl)-4-methyl-2-p-tolylthiazole-5-carboxamide], with 34 nM.
